Measurements taken from the NIST ThermoML archive (doi:10.1016/j.jct.2016.06.034).

Test: osmotic coefficient (dimensionless); mn = molality of the nth substance listed, in mol/kg
Conditions: 308.15 K, 84.5 kPa, Liquid, Knauer Osmomat K-7000

CCCCCCCCCCn1cc[n+](C)c1.[Br-] [1-decyl-3-methylimidazolium bromide] + O
Conditions	osmotic coefficient
m1 = 0.01036	1.233
m1 = 0.01532	1.16
m1 = 0.01539	1.154
m1 = 0.02001	1.11
m1 = 0.02014	1.106
m1 = 0.02471	1.081
m1 = 0.02479	1.075
m1 = 0.03022	1.06
m1 = 0.03026	1.055
m1 = 0.03486	1.021
m1 = 0.0384	0.9873
m1 = 0.03983	0.9742
m1 = 0.04483	0.8983
m1 = 0.04981	0.8319
m1 = 0.05918	0.735
m1 = 0.06429	0.687
m1 = 0.06983	0.644
m1 = 0.07967	0.579
m1 = 0.08811	0.53
m1 = 0.09976	0.48
m1 = 0.1175	0.417
